Numbers after ± are expanded uncertainties.
Columns and labels:
[1] = xn = mol fraction of the nth substance listed; details: 101.3 kPa, Liquid
[2] = 101.3 kPa, Liquid

CC1CCCO1 (configuration not stated) [2-methyltetrahydrofuran] + CC(C)CO
[1]
Details	kinematic viscosity, 298.15 K [m2/s]	kinematic viscosity, 313.15 K [m2/s]	mass density, 298.15 K [kg/m3]	mass density, 313.15 K [kg/m3]
x2 = 0	5.59e-07 ± 2e-08	4.92e-07 ± 1.8e-08	849.28 ± 0.49	834.01 ± 0.49
x2 = 0.0397	5.85e-07 ± 2.1e-08	5.06e-07 ± 1.8e-08	847.52 ± 0.48	832.15 ± 0.48
x2 = 0.0951	6.17e-07 ± 2.2e-08	5.31e-07 ± 1.9e-08	844.97 ± 0.47	829.82 ± 0.47
x2 = 0.1999	6.87e-07 ± 2.3e-08	5.88e-07 ± 2.1e-08	840.08 ± 0.45	825.25 ± 0.46
x2 = 0.3008	7.77e-07 ± 2.6e-08	6.54e-07 ± 2.2e-08	835.46 ± 0.44	820.88 ± 0.44
x2 = 0.3982	8.96e-07 ± 2.9e-08	7.47e-07 ± 2.5e-08	830.71 ± 0.42	816.54 ± 0.43
x2 = 0.4988	1.04e-06 ± 3.3e-08	8.47e-07 ± 2.8e-08	825.72 ± 0.41	811.84 ± 0.41
x2 = 0.5992	1.26e-06 ± 3.9e-08	9.96e-07 ± 3.2e-08	820.51 ± 0.39	807.01 ± 0.4
x2 = 0.7013	1.58e-06 ± 4.9e-08	1.22e-06 ± 3.8e-08	815.04 ± 0.38	801.97 ± 0.39
x2 = 0.7995	2.06e-06 ± 6.2e-08	1.51e-06 ± 4.7e-08	809.54 ± 0.37	796.99 ± 0.38
x2 = 0.9048	2.93e-06 ± 8.6e-08	2.02e-06 ± 6.1e-08	803.45 ± 0.36	791.39 ± 0.37
x2 = 0.9557	3.55e-06 ± 1e-07	2.36e-06 ± 7.1e-08	800.39 ± 0.35	788.49 ± 0.36

CC1CCCO1 (configuration not stated) [2-methyltetrahydrofuran] + CCC(C)Cl
[1], x2 = 0
Details	kinematic viscosity [m2/s]	mass density [kg/m3]
298.15 K	5.59e-07 ± 2e-08	849.28 ± 0.49
313.15 K	4.92e-07 ± 1.8e-08	834.01 ± 0.49

CC1CCCO1 (configuration not stated) [2-methyltetrahydrofuran] + CCC(C)O
[1]
Details	kinematic viscosity, 298.15 K [m2/s]	kinematic viscosity, 313.15 K [m2/s]	mass density, 298.15 K [kg/m3]	mass density, 313.15 K [kg/m3]
x2 = 0	5.59e-07 ± 2e-08	4.92e-07 ± 1.8e-08	849.28 ± 0.49	834.01 ± 0.49
x2 = 0.0437	5.66e-07 ± 2e-08	4.91e-07 ± 1.8e-08	847.1 ± 0.49	831.74 ± 0.49
x2 = 0.0915	6.07e-07 ± 2.1e-08	5.06e-07 ± 1.8e-08	844.81 ± 0.49	829.48 ± 0.49
x2 = 0.1968	6.45e-07 ± 2.2e-08	5.54e-07 ± 2e-08	839.74 ± 0.49	824.64 ± 0.49
x2 = 0.3024	7.16e-07 ± 2.4e-08	6.04e-07 ± 2.1e-08	834.82 ± 0.49	820.02 ± 0.49
x2 = 0.3993	8.06e-07 ± 2.7e-08	6.7e-07 ± 2.3e-08	830.17 ± 0.49	815.81 ± 0.49
x2 = 0.5051	9.5e-07 ± 3.1e-08	7.71e-07 ± 2.6e-08	825.31 ± 0.49	811.2 ± 0.49
x2 = 0.6018	1.11e-06 ± 3.6e-08	8.78e-07 ± 2.9e-08	820.77 ± 0.49	806.88 ± 0.49
x2 = 0.6999	1.39e-06 ± 4.4e-08	1.05e-06 ± 3.4e-08	816.27 ± 0.49	802.66 ± 0.49
x2 = 0.8077	1.86e-06 ± 5.7e-08	1.34e-06 ± 4.2e-08	811.31 ± 0.49	797.97 ± 0.49
x2 = 0.8708	2.26e-06 ± 6.8e-08	1.57e-06 ± 4.9e-08	808.35 ± 0.49	795.28 ± 0.5
x2 = 0.9361	2.9e-06 ± 8.6e-08	1.86e-06 ± 5.8e-08	805.28 ± 0.49	792.38 ± 0.5

CC1CCCO1 (configuration not stated) [2-methyltetrahydrofuran] + CCCCCl
[1]
Details	kinematic viscosity, 298.15 K [m2/s]	kinematic viscosity, 313.15 K [m2/s]	mass density, 298.15 K [kg/m3]	mass density, 313.15 K [kg/m3]
x2 = 0	5.59e-07 ± 2e-08	4.92e-07 ± 1.8e-08	849.28 ± 0.49	834.01 ± 0.49
x2 = 0.0494	5.56e-07 ± 2e-08	4.88e-07 ± 1.8e-08	850.97 ± 0.48	835.48 ± 0.48
x2 = 0.1008	5.52e-07 ± 2e-08	4.85e-07 ± 1.8e-08	852.97 ± 0.47	837.19 ± 0.47
x2 = 0.203	5.43e-07 ± 1.9e-08	4.78e-07 ± 1.8e-08	856.41 ± 0.45	840.52 ± 0.45
x2 = 0.3004	5.35e-07 ± 1.9e-08	4.71e-07 ± 1.7e-08	859.76 ± 0.43	843.74 ± 0.44
x2 = 0.3963	5.27e-07 ± 1.9e-08	4.64e-07 ± 1.7e-08	862.73 ± 0.41	846.73 ± 0.42
x2 = 0.4969	5.18e-07 ± 1.9e-08	4.56e-07 ± 1.7e-08	865.86 ± 0.4	849.69 ± 0.4
x2 = 0.5976	5.09e-07 ± 1.8e-08	4.49e-07 ± 1.7e-08	869.09 ± 0.38	852.75 ± 0.38
x2 = 0.6993	5.01e-07 ± 1.8e-08	4.41e-07 ± 1.6e-08	872.11 ± 0.36	855.69 ± 0.36
x2 = 0.7993	4.93e-07 ± 1.8e-08	4.34e-07 ± 1.6e-08	874.9 ± 0.34	858.36 ± 0.35
x2 = 0.8988	4.85e-07 ± 1.8e-08	4.27e-07 ± 1.6e-08	878.01 ± 0.32	861.05 ± 0.33
x2 = 0.9483	4.82e-07 ± 1.8e-08	4.24e-07 ± 1.6e-08	879.23 ± 0.31	862.56 ± 0.32

CC1CCCO1 (configuration not stated) [2-methyltetrahydrofuran] + CCCCO
[1]
Details	kinematic viscosity, 298.15 K [m2/s]	kinematic viscosity, 313.15 K [m2/s]	mass density, 298.15 K [kg/m3]	mass density, 313.15 K [kg/m3]
x2 = 0	5.59e-07 ± 2e-08	4.92e-07 ± 1.8e-08	849.28 ± 0.49	834.01 ± 0.49
x2 = 0.0488	5.91e-07 ± 2.1e-08	5.11e-07 ± 1.9e-08	847.62 ± 0.48	832.35 ± 0.48
x2 = 0.1039	6.22e-07 ± 2.2e-08	5.35e-07 ± 1.9e-08	845.56 ± 0.46	830.5 ± 0.46
x2 = 0.205	6.93e-07 ± 2.3e-08	5.88e-07 ± 2.1e-08	841.78 ± 0.43	827.07 ± 0.43
x2 = 0.3006	7.7e-07 ± 2.6e-08	6.52e-07 ± 2.2e-08	838.03 ± 0.41	823.64 ± 0.41
x2 = 0.4051	8.81e-07 ± 2.9e-08	7.34e-07 ± 2.5e-08	833.86 ± 0.38	820 ± 0.39
x2 = 0.5099	1.05e-06 ± 3.4e-08	8.41e-07 ± 2.8e-08	829.37 ± 0.36	815.98 ± 0.36
x2 = 0.6036	1.21e-06 ± 3.8e-08	9.69e-07 ± 3.1e-08	825.28 ± 0.34	812.07 ± 0.35
x2 = 0.7034	1.47e-06 ± 4.5e-08	1.16e-06 ± 3.6e-08	820.68 ± 0.32	807.96 ± 0.33
x2 = 0.8042	1.84e-06 ± 5.6e-08	1.39e-06 ± 4.3e-08	815.8 ± 0.31	803.45 ± 0.32
x2 = 0.906	2.4e-06 ± 7.1e-08	1.76e-06 ± 5.3e-08	810.56 ± 0.3	798.76 ± 0.31
x2 = 0.9582	2.8e-06 ± 8.2e-08	1.99e-06 ± 6e-08	807.81 ± 0.29	796.23 ± 0.3

CCCCO [butan-1-ol]
[2]
Details	kinematic viscosity [m2/s]	mass density [kg/m3]
298.15 K	3.19e-06 ± 9.3e-08	805.56 ± 0.29
313.15 K	2.22e-06 ± 6.7e-08	794.19 ± 0.3

CCCCO [butan-1-ol] + CC1CCCO1
[1], x1 = 1
Details	kinematic viscosity [m2/s]	mass density [kg/m3]
298.15 K	3.19e-06 ± 9.3e-08	805.56 ± 0.29
313.15 K	2.22e-06 ± 6.7e-08	794.19 ± 0.3

CCC(C)O (configuration not stated) [butan-2-ol]
[2]
Details	kinematic viscosity [m2/s]	mass density [kg/m3]
298.15 K	3.73e-06 ± 1.1e-07	802.25 ± 0.49
313.15 K	2.24e-06 ± 7e-08	789.44 ± 0.5

CCC(C)O (configuration not stated) [butan-2-ol] + CC1CCCO1
[1], x1 = 1
Details	kinematic viscosity [m2/s]	mass density [kg/m3]
298.15 K	3.73e-06 ± 1.1e-07	802.25 ± 0.49
313.15 K	2.24e-06 ± 7e-08	789.44 ± 0.5
